# In patent publication US7465716B2, “Targeted drug delivery with a hyaluronan ligand” (The Regents of the University of California, priority 1999, dated 2008):
# Tests used:
# B16F10 lung tumors = test: Chemotherapy of mice with B16F10 lung tumors (Table 4); format: in vivo, C57/BL6 mice; conditions: treated day 6, counted day 14, N = 9; HAL-dox and POPG-dox at 8 mg/kg
# Description: The drug delivery systems of this invention can be tested in the B16F10 lung metastases model. The number of B16F10 tumor nodules was enumerated in the lung of syngeneic C57/BL6 mice 14days after intravenouss injection into the tail vein of 1×10^5, 3×10^5 and 1×10^6 B16F10 cells/mouse in a volume of 0.2 mL PBS. These cell numbers were used because they span the range reported to give a countable number of nodules in previous investigations. The animals were sacrificed and the lungs were removed 14 days post inoculation of B16F10 cells, and then fixed in Bouin's solution. The visible tumor nodules were assessed and counted under dissecting microscope. N=9 per group. The dose of 3×10^5 cells/mouse yielded a suitable number of nodules to provide an adequate statistical analysis. […] The distribution of hyaluronanliposomes in B16F10 tumorial mice was measured on day 14 after innoculation. […] The animals (n=7) were sacrificed 3 hours after injection, the organs removed, the lungs were fixed in Bouin's solution and the radioactivity in each organ determined by gamma scintillation spectroscopy (Table 3).
# The chemotherapeutic efficacy of doxorubicin delivered in various forms in the B16F10 lung tumor model was compared by counting the nodules on day 14 after innoculation of mice with B16F10. […] The animals were sacrificed and tumor nodules: counted on day 14. […]
# CV-1 cells = test: Chemosensitivity assay (SRB staining), CV-1 cells; format: cell-based, monkey; conditions: compared with B16F10 cells / free DOX
# Source text: FIGS. 5A and 5B show the DOX dose dependence cytotoxicity determined after treatment of B16F10 and CV-1 cells with non-encapsulated DOX and DOX-loaded HAL. […] To examine the specificity of the HAL we treated CV-1 cells with the three formulations. CV-1 cells express a very low level of CD44. […] Furthermore, the cytotoxicity of both the HAL and POPG liposomes was. similar, confirming the low interaction of the liposomes with CV-1 cells.
# The cytotoxic effect of free DOX or Liposomes-encapsulated DOX on the cells was assayed colorimetrically by the sulforhodamine B (SRB) staining. A sample containing 16,000 B16F10 or 25,000 CV-1 cells (from an exponentially growing culture) in 100 μl aliquots were plated onto 96-well flat bottom microtiter plates. The culture plates were incubated for 24 hours at 37° C. and 5% CO2 and then the medium in each well was replaced with 100 μl serum-free and antibiotic-free medium containing various concentration of free or liposome-encapsulated DOX. For each 10-fold increase in drug concentration, four drug concentration levels were tested. […] The cultures were incubated at 4° C. for 1 h and then washed and analyzed for SRB staining of the monolayers as described. The measurement of the absorbance of the SRB at 564 nm in the monolayers was determined by an Optimax microplate reader (Molecular Devices, Sunnyvale, Calif.). […]
# [1] = test system: B16-F10 tumor nodules in the lung; test: Dose response on B16-F10 lung tumor nodules (Table 6); format: in vivo, C57/BI6 mice
# Description: In this experiment groups of 10 animals were inoculated with the tumor cells on day zero and treated with the various formulations on day 6 as described above. To keep the lipid concentration constant as the dose of liposome encapsulated drug was reduced, HAL-Dox formulations were diluted with empty DSPG liposome (HSPC:Chol:DSPG 60:40:9 mole ration) to maintain the total lipid concentration at 1 micromole.
# [2] = test system: B16-F10 tumor nodules in the lung; test: Effect of liposome composition on B16-F10 lung tumor nodules (Table 5); format: in vivo, C57/BI6 mice; conditions: Doxorubicin 3 mg/kg on day 6, 10 mice/group
# Description: As shown above, the presence of the targeting hyaluronan lipid, the type of lipid anchor that the hyaluronan was attached to and the lipid composition of the targeted liposomes influenced the anti-tumor effect. In this example, doxorubicin was encapsulated in liposomes of different compositions (described below in the liposome preparation) and injected into C57/BI6 mice at a dose of 3 mg/kg on day 6 after the mice had received the B16-F10 tumor as described above.
# A specific, non-limiting example of doxorubicin loaded lipsome preparation involves thin lipid film hydration followed by sonication and extrusion. Briefly, the lipid components were weighed and dissolved in chloroform at the desired molar ratio(POPC:Chol:HA4-POPE:aT 60:40:3:0.1; POPC:Chol:POPG:aT 60:40:9:0.1; HSPC:Chol:PEG-DSPE:aT 56.2:38.3:5.3:0.1; HSPC:Chol:DPPG:aT 56.2:38.3:5.3:0.1; HSPC:Chol:HA4-DPPE:aT 56.2:38.3:5.3:0.1). […] Phospholipid concentration was determined by a phosphorous assay. DOX concentrations were determined by measurement of absorbance at 480 nm (using a molar coefficient=12,500) after solubilization of the liposomes in 90% isopropyl alcohol containing 0.075 M HCl. […] For both POPC and HSPC liposomes, mean vesicle diameter as measured by dynamic light scattering using the multimodal program was 120-150 nm (SD<35% of the mean) with a monodisperse particle size distribution. […]
# [3] = 0.3 mg/kg, HAL-Dox = HAL-DPPE encapsulated Dox
# [4] = 1 mg/kg, HAL-Dox = HAL-DPPE encapsulated Dox
# [5] = 3 mg/kg, HAL-Dox = HAL-DPPE encapsulated Dox
# [6] = 10 mg/kg, treated day 6, groups of 10
compound,measurement,setting,value
"COc1cccc2c1C(=O)c1c(O)c3c(c(O)c1C2=O)C[C@@](O)(C(=O)CO)C[C@@H]3O[C@H]1C[C@H](N)[C@H](O)[C@H](C)O1 [free DOX, Doxorubicin]",# nodules Mean,B16F10 lung tumors,56.11 ± 49.48
same,# nodules Median,B16F10 lung tumors,45
same,cytotoxicity to CV-1 cells (in words),CV-1 cells,significantly lower
same,# nodules Mean,[1]; [3],248.1 ± 56.9
same,# nodules Median,[1]; [3],250.5
same,# nodules Mean,[1]; [4],265.9 ± 34.5
same,# nodules Median,[1]; [4],277
same,# nodules Mean,[1]; [5],208.2 ± 82.1
same,# nodules Median,[1]; [5],191
same,# nodules Mean,[1]; [6],157.9 ± 70.6
same,# nodules Median,[1]; [6],151
same,# nodules Mean,[2],171.60 ± 71.79
same,# nodules Median,[2],179
